In patent US6300350A, “Treatment of emphysema using RARy selective retinoid agonists” (priority 2000, dated 2001):

Assays:
RXR receptors = conditions: cited from earlier work
RARγ [1] = target: T1, RARγ (Homo sapiens, UniProt P13631); test: Transactivation, RARγ; format: cell-based
T1 sequence (P13631 1-454): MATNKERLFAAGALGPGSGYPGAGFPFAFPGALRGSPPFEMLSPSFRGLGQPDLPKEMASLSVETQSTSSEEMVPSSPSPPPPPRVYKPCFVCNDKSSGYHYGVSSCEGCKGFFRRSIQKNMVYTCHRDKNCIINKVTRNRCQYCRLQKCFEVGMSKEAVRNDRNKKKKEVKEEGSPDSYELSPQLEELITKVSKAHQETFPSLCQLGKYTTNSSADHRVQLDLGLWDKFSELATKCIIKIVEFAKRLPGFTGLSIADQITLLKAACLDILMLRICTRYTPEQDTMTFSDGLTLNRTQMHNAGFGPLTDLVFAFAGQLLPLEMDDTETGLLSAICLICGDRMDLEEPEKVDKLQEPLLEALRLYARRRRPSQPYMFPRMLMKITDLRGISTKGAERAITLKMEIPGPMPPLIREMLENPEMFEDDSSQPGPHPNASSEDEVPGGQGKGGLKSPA
Description: (§1) As used herein, the term "transactivation" refers to the ability of a retinoid to activate the transcription of a gene where the gene transcription is initiated by the binding of a ligand to the particular retinoic acid receptor being tested, i.e., RARα, RARβ, or RARγ. Determining the ability of a compound to transactivate a retinoic acid receptor may be performed by methods known to those of skill in the art. […] Apfel etal., Proc. Nat.

RARβ [2] = target: T2, RARβ (Homo sapiens, UniProt P10826); test: Binding, RARβ (ligand binding assay)
T2 sequence (P10826 1-455): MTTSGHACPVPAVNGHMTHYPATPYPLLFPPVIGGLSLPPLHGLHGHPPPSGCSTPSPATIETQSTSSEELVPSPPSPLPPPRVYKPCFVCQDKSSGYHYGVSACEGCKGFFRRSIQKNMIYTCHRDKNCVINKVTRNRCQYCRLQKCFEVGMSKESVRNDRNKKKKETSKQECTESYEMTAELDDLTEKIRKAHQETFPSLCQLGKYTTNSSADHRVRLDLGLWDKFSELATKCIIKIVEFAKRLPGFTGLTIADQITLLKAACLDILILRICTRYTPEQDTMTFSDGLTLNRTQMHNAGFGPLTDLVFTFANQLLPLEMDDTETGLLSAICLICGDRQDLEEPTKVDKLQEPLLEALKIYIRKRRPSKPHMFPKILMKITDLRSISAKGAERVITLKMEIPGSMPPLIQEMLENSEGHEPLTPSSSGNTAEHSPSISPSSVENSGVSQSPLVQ
Description: (§2) The RARγ agonist selectivity of a compound can be determined by routine ligand binding assays known to one of skill in the art such as described in C. Apfel et al., Proc. Nat.

[3] = tested on: elastase-induced emphysema; test: Alveolar repair in rat model of elastase-induced emphysema, intraperitoneal; format: in vivo, male Sprague Dawley rats; set-up: Alveolar Area: unit not given here; conditions: for % Repair / Alveolar Area: 0.5 mg/kg ip once daily, from 21 days post injury, 14 days; for Alveolar Area: naive 1637 +/- 153, elastase + vehicle 3570 +/- 319; for alveolar repair (in words): elastase-treated rats, 0.5 mg/kg ip; for light micrographs of lung sections (in words): rat lung damaged by elastase and then treated, compared to normal rat lung
Experimental: Animals were divided into treatment groups of approximately eight. […] Three weeks post injury ATRA or a RAR selective agonist was dissolved in DMSO (20 mg/ml) and stored at -20 C. Fresh working stocks were prepared fresh daily by dilution in corn oil to a final concentration of 2 mg/ml. […] Control groups were challenged with elastase and 21 days later treated with Vehicle (DMSO/PBS) for 14 days. Animals were sacrificed 24 hours after the last dose of by exsanguination under deep anesthesia. Blood was collected at time of exanguination for analysis of changes in blood chemistry from respective treatments. The lungs were inflated with 10% neutral buffered formalin by intratracheal instillation at a constant rate (1 ml/gram body mass/min). The lung was excised and immersed in fixative for 24 hours prior to processing. Standard methods were used to prepare 5 um paraffin sections. Sections were stained with Hematoxylin and Eosin (H%E). Computerized Morphometric analysis was performed to determine the average alveolar size and alveolar number.

RARγ [4] = target: T1, RARγ; test: Binding, RARγ (ligand binding assay)
Description: as §2

tropoelastin gene = test: RAR transactivation of steady state tropoelastin gene in normal human lung fibroblasts (CCD-16Lu); format: cell-based; conditions: for Tropo-elastin Expression: CCD-16Lu, 1×10^-7 M, RT-PCR, triplicate, untreated control 30.90; for tropoelastin gene induction (in words): human lung fibroblasts, compared to the control
Experimental: Transactivation of the tropoelastin gene in normal human lung fibroblasts (CCD-16Lu) was performed as described below. Cells were grown to confluence at which time fresh media +/- ATRA or selective retiniod was added to the basal culture. ATRA and/or selective retiniods were used at a concentration of 1×10^-7 M. The cell layer was lysed using a guanidinium-based buffer (TRIZOL/Sigma) for RNA extraction and analysis. Amplification of tropoelastin and GAPDH RNA was performed by standard quantitative RT-PCR (TAQMAN, Perken/Elmer) using appropriate selective primers. Tropo-elastin gene expression was normalized to the expression of standard house-keeping gene (GAPDH).
Samples were run in triplicate.

RARα [5] = target: T3, RARα (Homo sapiens, UniProt P10276); test: Binding, RARα (ligand binding assay)
T3 sequence (P10276 1-462): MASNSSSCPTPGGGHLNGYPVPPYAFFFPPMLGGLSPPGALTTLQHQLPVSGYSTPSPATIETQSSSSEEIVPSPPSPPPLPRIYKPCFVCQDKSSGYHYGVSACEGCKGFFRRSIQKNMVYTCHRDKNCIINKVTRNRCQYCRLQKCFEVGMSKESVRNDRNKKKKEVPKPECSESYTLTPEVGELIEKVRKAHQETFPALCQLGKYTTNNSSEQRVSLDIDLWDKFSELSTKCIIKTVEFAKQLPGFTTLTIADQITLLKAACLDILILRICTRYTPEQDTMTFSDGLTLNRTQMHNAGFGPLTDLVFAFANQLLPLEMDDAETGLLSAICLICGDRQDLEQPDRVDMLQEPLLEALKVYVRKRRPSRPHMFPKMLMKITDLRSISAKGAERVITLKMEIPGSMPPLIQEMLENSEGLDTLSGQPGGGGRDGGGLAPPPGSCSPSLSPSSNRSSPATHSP
Description: as §2

RARβ [6] = target: T2, RARβ; test: Transactivation, RARβ; format: cell-based
Description: as §1

RARα [7] = target: T3, RARα; test: Transactivation, RARα; format: cell-based
Description: as §1

experimental emphysema = test: Alveolar repair in rat experimental emphysema, oral dosing; format: in vivo, rats; conditions: 1 mg/kg/PO daily for two weeks
Experimental: (§3) Three (3) weeks post injury animals were treated with vehicle (Capmul solution) or retinoids prepared in Capmul and dosed orally at 1, 3, and 10 mg/kg body weight. Animals were treated for 14 days prior to termination of study.
Dosage was at 1 mg/kg/PO daily for two weeks.

[8] = Plasma triglyceride levels in rats; format: in vivo
Experimental: as §3, with “Experimental emphysema was induced in rats as described in Example 2. Three” for “Three”, “study. Lung harvest and blood collection was performed as described in Example 2.” for “study.”
Quantitation of triglycerides contained in rat plasma was performed after using established procedures in a contact clinical laboratory facility. Briefly, plasma triglycerides were converted to dihdroxyacetone and H2 O2, by sequential treatment of plasma with lipase and glycerokinase according directions described by manufacturer of triglycerides/GPO kit (Boehringer Mannheim #1488872). H2 02 was quantitated calorimetrically in a Hitachi 911 Chemistry Analyzer. In rats normal triglyceride levels are 75-175 mg/dl.
Dosage was at 1 mg/kg/PO daily for two weeks. […] Therefore, it appears that RARα selective activity is linked to elevated triglyceride levels.

alveolar septation = conditions: postnatal administration; newborn rats; cited from earlier work
[9] = plasma, 1 mg/kg/PO daily for two weeks
[10] = plasma, 1 mg/kg/PO daily for two weeks, normal rat 75-175 mg/dl

EC50 (RARγ [1]; Table III) [nM] | IC50 (RARγ [4]; Table III) [nM] | SMILES | % Repair [3] [%] | Alveolar Area [3] | alveolar repair (in words) [3] | % Repair (experimental emphysema) [%] | triglyceride levels (in words) [8, 9] | [Triglyceride] [8, 10] [mg/dL] | further results
 |  | CC1=C(/C=C/C(C)=C\C=C\C(C)=C\C(=O)O)C(C)(C)CCC1 [9-cis retinoic acid] |  |  |  |  |  |  | binding to RXR receptors (in words) (RXR receptors): is the natural ligand
10000 | 10000 | O=C(O)c1ccc(NC(=O)c2cc(C(F)(F)F)cc(C(F)(F)F)c2)cc1 [RAR Agonist 1, reference compound] | < 20 | 3058 +/- 160 | do not induce alveolar repair |  |  |  | EC50 (RARγ [1]; Table II): 10000 nM; IC50 (RARβ [2]; Table II): 10000 nM; light micrographs of lung sections (in words) [3]: did not reverse the change caused by elastase treatment; IC50 (RARγ [4]; Table II): 10000 nM; Tropo-elastin Expression (tropoelastin gene): 13.93 (Elastin/GAPDH) × 10^5; tropoelastin gene induction (in words) (tropoelastin gene): did not induce the tropoelastin gene; IC50 (RARα [5]; Table II): 300 nM; EC50 (RARβ [6]; Table II): 10000 nM; EC50 (RARα [7]; Table II): 16.5 nM
160 | 300 | CC(C)COc1ccc(-c2ccc3cc(C(=O)O)ccc3c2)cc1C(C)(C)C [RAR Agonist 2, reference compound] | < 20 | 3653 +/- 550 | do not induce alveolar repair |  |  |  | EC50 (RARγ [1]; Table II): 160 nM; IC50 (RARβ [2]; Table II): 28 nM; light micrographs of lung sections (in words) [3]: did not reverse the change caused by elastase treatment; IC50 (RARγ [4]; Table II): 300 nM; Tropo-elastin Expression (tropoelastin gene): 1.85 (Elastin/GAPDH) × 10^5; tropoelastin gene induction (in words) (tropoelastin gene): did not induce the tropoelastin gene; IC50 (RARα [5]; Table II): 1000 nM; EC50 (RARβ [6]; Table II): 39 nM; EC50 (RARα [7]; Table II): 2000 nM
104 | 770 | CCCCCC(=O)c1cc2c(cc1/C=C/c1ccc(C(=O)O)cc1)C(C)(C)CCC2(C)C [RAR Agonist 5] | 56 | 2502 +/- 243 | markedly induce alveolar repair | 40 | do not cause elevation in the triglyceride levels | 119 | IC50 (RARβ [2]; Table III): 5400 nM; IC50 (RARα [5]; Table III): 2300 nM; EC50 (RARβ [6]; Table III): 10000 nM; EC50 (RARα [7]; Table III): 10000 nM
15 | 2410 | CC1(C)CCOc2ccc(C(=O)/C=C/c3ccc(C(=O)O)cc3)cc21 [RAR Agonist 6] | > 70 | 1909 +/- 207 | markedly induce alveolar repair | 39 | do not cause elevation in the triglyceride levels | 140 | IC50 (RARβ [2]; Table III): 2100 nM; IC50 (RARα [5]; Table III): 3100 nM; EC50 (RARβ [6]; Table III): 16 nM; EC50 (RARα [7]; Table III): 10000 nM
 |  | O=C(O)c1ccc2cc(-c3ccc(O)c(C45CC6CC(CC(C6)C4)C5)c3)ccc2c1 [RAR Agonist 7] | > 70 | 1817 +/- 241 | markedly induce alveolar repair | 66 |  |  | IC50 (RARβ [2]; Table III): 4600 nM; EC50 (RARβ [6]; Table III): 2300 nM; [Triglyceride] ([8]; rat, in vivo, po, 1 mg/kg): 114 mg/dL; triglyceride levels (in words) ([8]; rat, in vivo, po, 1 mg/kg): do not cause elevation in the triglyceride levels
 |  | CC1=C(/C=C/C(C)=C/C=C/C(C)=C\C(=O)O)C(C)(C)CCC1 [RAR Agonist 8, reference compound] |  |  |  | 57.1 | either on the high end of normal or elevated | 178 | 
 |  | CC1(C)CCC(C)(C)c2cc(C(=O)Nc3ccc(C(=O)O)cc3)ccc21 [RAR Agonist 9] | < 20 | 3323 +/- 406 | do not induce alveolar repair |  |  |  | 
 |  | CC1=C(/C=C/C(C)=C\C=C\C(C)=C\C(=O)O)C(C)(C)CCC1 [RAR Agonist 10, reference compound] |  |  |  | 58.3 | either on the high end of normal or elevated | 273 | 
 |  | C[C@@H]1C[C@H]2[C@@H]3CCC4=CC(=O)C=C[C@]4(C)[C@@]3(F)[C@@H](O)C[C@]2(C)[C@@]1(O)C(=O)CO [dexamethasone] |  |  |  |  |  |  | number of alveoli / septation in lungs (in words) (alveolar septation): inhibits the process of septation in the lungs
 |  | CC1=C(/C=C/C(C)=C/C=C/C(C)=C/C(=O)O)C(C)(C)CCC1 [retinoic acid] |  |  |  |  |  |  | number of alveoli / septation in lungs (in words) (alveolar septation): increases the number of alveoli in rats
